US4330532A, “Angiotensin-II analogues with antagonizing effects, containing an α-hydroxycarboxylic acid residue in position 8, and a process for the preparation thereof” (Richter Gedeon Vegyeszeti Gyar Rt., priority 1980, dated 1982)

Tested on: hypertension provoked by angiotensin-II (Hypertensin (CIBA) infusion)
Test: Antagonistic (hypotensive) effect on Hypertensin-infused narcotized male cats
Format: in vivo, cat
Protocol: The antagonistic effects of the new compounds of the formula (I) were investigated on narcotized male cats. After treating the animals with a ganglion blocking agent and bisecting the cervical vagus nerves on both sides, the animals were treated with an infusion of Hypertensin (CIBA) at a rate of 0.5 μg/kg/min. When the blood pressure of the animals reached a steady, increased level, the substance to be tested was administered either intravenously or subcutaneously in physiological saline solution or as an aqueous solution which also contained a carrier. The blood pressure drop was measured in mm Hg units, and the extent of decrease was expressed in percents related to the value before treatment. The statistical evaluation was performed on the basis of the blood pressure differences, by Student's single sample "t" test. The term "duration of effect" denotes the period elapsed until the observation of the last still significant (p±5%) blood pressure difference.

[1] = s.c., carboxymethyl cellulose (CMC) carrier, dose 100 μg/kg
[2] = s.c., carboxymethyl cellulose (CMC) carrier, dose 200 μg/kg
[3] = s.c., gelatine carrier, dose 200 μg/kg
[4] = s.c., physiological saline, dose 100 μg/kg
[5] = s.c., physiological saline, dose 200 μg/kg

SMILES: CNCC(=O)N[C@@H](CCCN=C(N)N)C(=O)N[C@H](C(=O)N[C@@H](Cc1ccc(O)cc1)C(=O)N[C@H](C(=O)N[C@@H](Cc1cnc[nH]1)C(=O)N1CCC[C@H]1C(=O)N[C@@H](C)C(=O)O)C(C)C)C(C)C [Saralasin, (Sar^1, Ala^8)-angiotensin-II]
- blood pressure drop, extent of decrease in percents related to the value before treatment (i.v., dose 10 μg/kg): 32%
- duration of effect (i.v., dose 10 μg/kg): 15 min
- blood pressure drop, extent of decrease in percents related to the value before treatment [1]: 23%
- duration of effect [1]: 45 min
- blood pressure drop, extent of decrease in percents related to the value before treatment [2]: 28%
- duration of effect [2]: 90 min
- blood pressure drop, extent of decrease in percents related to the value before treatment [3]: 23%
- duration of effect [3]: .phi.
- blood pressure drop, extent of decrease in percents related to the value before treatment [4]: 29%
- duration of effect [4]: 60 min
- blood pressure drop, extent of decrease in percents related to the value before treatment [5]: 24%
- duration of effect [5]: 45 min
